Holding throughout (design): key: 0: normal development; 1: Less damaged; 2: Slightly damaged; 3: Moderately damaged; 4: Severely damaged; 5: All killed
Test [1] concerns common lambsquartes. Put plainly: Foliar spread test for upland field. Type of test: in vivo, Chenopodium album. Conditions: foliar spray 500 ppm, 3 weeks, rank vs non-treated. The source says:
(§1) (0: normal development, 1: Less damaged, 2: Slightly damaged, 3: Moderately damaged, 4: Severely damaged, 5: All killed).
(§2) Wagner pots, each having an area of 1/5000 are, were packed with volcanic ash soil and then each seed of corn, soybean, cotton, wheat, solgum, sugar beat, Large crabgrass, barnyardgrass, green foxtail, blackgrass, annual bluegrass, common lambsquartes, livid amaranth, velvetleaf and morning glory was planted, covered with soil and grown in a glass house at an average temperature of […] for about 2 weeks.
(§3) Each wettable powder of the desired compounds (I) shown in Table 1 prepared in accordance with Example 2 was diluted to 500 ppm with water containing a surfactant (0.5%) and then uniformly sprayed on the above respective plants.
(§4) After these plants were controlled in a glass house at an average temperature of 25° C. for 3 weeks, the herbicidal effects thereof were investigated.
(§5) The herbicidal effects were evaluated according to the evaluation method described in the above (1).

The subject of test [2] is wheat. As to the kind of experiment: Foliar spread test for upland field. Type of test: in vivo. The conditions noted are these: foliar spray 500 ppm, 3 weeks, rank vs non-treated.
Text: as §1, §2, §3, §4, §5

The subject of test [3] is corn. Put plainly: Foliar spread test for upland field. The conditions noted are these: foliar spray 500 ppm, 3 weeks, rank vs non-treated. Type of test: in vivo.
Text: as §1, §2, §3, §4, §5

The test system of test [4] is sugar beat. As to the kind of experiment: Foliar spread test for upland field. Type of test: in vivo. The conditions noted are these: foliar spray 500 ppm, 3 weeks, rank vs non-treated.
Text: as §1, §2, §3, §4, §5

Test [5] relates to solgum. As to the kind of experiment: Foliar spread test for upland field. The conditions noted are these: foliar spray 500 ppm, 3 weeks, rank vs non-treated. Type of test: in vivo.
Text: as §1, §2, §3, §4, §5

Test [6] concerns livid amaranth. As to the kind of experiment: Foliar spread test for upland field. Type of test: in vivo, Amaranthus lividus. Conditions: foliar spray 500 ppm, 3 weeks, rank vs non-treated.
Text: as §1, §2, §3, §4, §5

In test [7] the test system is velvetleaf. As to the kind of experiment: Foliar spread test for upland field. Type of test: in vivo, Abutilon theophrasti. Conditions: foliar spray 500 ppm, 3 weeks, rank vs non-treated.
Text: as §1, §2, §3, §4, §5

Test [8] concerns green foxtail. As to the kind of experiment: Soil treatment test for upland field. Type of test: in vivo, Setaria viridis. The conditions noted are these: 500 g/ha, glass house 25° C., 3 weeks.
Text: as §1
(§6) Wagner pots, each having an area of 1/5000 are, were packed with Ube soil (alluvial soil), and then each seed of corn, soybean, cotton, wheat, solgum, sugar beat, Large crabgrass, barnyardgrass, green foxtail, blackgrass, annual bluegrass, common lambsquartes, livid amaranth and velvetleaf were planted and covered with soil.
(§7) Each wettable powder of the desired compounds (I) shown in Table 1 prepared in accordance with Example 2 was diluted with water containing a surfactant (0.05%) and uniformly sprayed on the surface of each soil so that an effective concentration of the compound (I) in each herbicide became 500 g/ha. These plants were controlled in a glass house at an average temperature of 25° C. for 3 weeks, and then herbicidal effects thereof were investigated.
as §5

In test [9] the test system is Large crabgrass. As to the kind of experiment: Soil treatment test for upland field. Type of test: in vivo, Digitaria adscendens. The conditions noted are these: 500 g/ha, glass house 25° C., 3 weeks.
Text: as §1, §6, §7, §5

In test [10] the test system is annual bluegrass. As to the kind of experiment: Soil treatment test for upland field. Conditions: 500 g/ha, glass house 25° C., 3 weeks. Type of test: in vivo, Poa annua.
Text: as §1, §6, §7, §5

The subject of test [11] is livid amaranth. Put plainly: Soil treatment test for upland field. Type of test: in vivo, Amaranthus lividus. Conditions: 500 g/ha, glass house 25° C., 3 weeks.
Text: as §1, §6, §7, §5

Test [12] has as its system common lambsquartes. As to the kind of experiment: Soil treatment test for upland field. Type of test: in vivo, Chenopodium album. The conditions noted are these: 500 g/ha, glass house 25° C., 3 weeks.
Text: as §1, §6, §7, §5

For test [13], the system named is wheat. Put plainly: Soil treatment test for upland field. Type of test: in vivo. The conditions noted are these: 500 g/ha, glass house 25° C., 3 weeks.
Text: as §1, §6, §7, §5

In test [14] the test system is corn. Put plainly: Soil treatment test for upland field. Type of test: in vivo. Conditions: 500 g/ha, glass house 25° C., 3 weeks.
Text: as §1, §6, §7, §5

For test [15], the system named is sugar beat. As to the kind of experiment: Soil treatment test for upland field. Type of test: in vivo. The conditions noted are these: 500 g/ha, glass house 25° C., 3 weeks.
Text: as §1, §6, §7, §5

In test [16] the test system is solgum. Put plainly: Soil treatment test for upland field. Type of test: in vivo. The conditions noted are these: 500 g/ha, glass house 25° C., 3 weeks.
Text: as §1, §6, §7, §5

Test [17] has as its system cotton. As to the kind of experiment: Soil treatment test for upland field. Type of test: in vivo. Conditions: 500 g/ha, glass house 25° C., 3 weeks.
Text: as §1, §6, §7, §5

Test [18] concerns soybean. Put plainly: Soil treatment test for upland field. Type of test: in vivo. The conditions noted are these: 500 g/ha, glass house 25° C., 3 weeks.
Text: as §1, §6, §7, §5

In test [19] the test system is velvetleaf. Put plainly: Soil treatment test for upland field. Type of test: in vivo, Abutilon theophrasti. The conditions noted are these: 500 g/ha, glass house 25° C., 3 weeks.
Text: as §1, §6, §7, §5

Test [20] has as its system bulrush. As to the kind of experiment: Herbicidal test for paddy field. Type of test: in vivo, Scrips juncoides. Conditions: paddy field pot, 500 g/ha dropwise at 1.5 leaf stage of barnyardgrass, 3 weeks, rank vs non-treated. The procedure:
(§8) Wagner pots, each having an area of 1/5000 are, were packed with Ube soil (alluvial soil) and planted with seeds or tubers of young rice plant, barnyardgrass, bulrush, flat sedge and monochoria. Then, the pots were filled with water to a depth of 3 cm.
(§9) Each wettable powder of the desired compounds (I) shown in Table 1 prepared in accordance with Example 2 was diluted with water containing a surfactant (0.05%) and subjected to dropwise addition treatment by using pipet so that an effective concentration of the compound (I) in each herbicide became 500 g/ha at 1.5 leaf stage of barnyardgrass.
(§10) These plants were controlled in a glass house at an average temperature of 25° C. for 3 weeks, and then herbicidal effects thereof were investigated.
(§11) The herbicidal effects are evaluated according to the following 6 ranks as compared with non-treated district.
as §1

In test [21] the test system is monochoria. Put plainly: Herbicidal test for paddy field. Type of test: in vivo, Monochoria vaginalis. The conditions noted are these: paddy field pot, 500 g/ha dropwise at 1.5 leaf stage of barnyardgrass, 3 weeks, rank vs non-treated. As for the experimental part:
as §8, §9, §10, §11, §1

The test system of test [22] is blackgrass. Put plainly: Soil treatment test for upland field. Conditions: 500 g/ha, glass house 25° C., 3 weeks. Type of test: in vivo, Alopecurus aegualis.
Text: as §1, §6, §7, §5

In test [23] the test system is young rice plant. Put plainly: Herbicidal test for paddy field. Type of test: in vivo. The conditions noted are these: paddy field pot, 500 g/ha dropwise at 1.5 leaf stage of barnyardgrass, 3 weeks, rank vs non-treated. The procedure:
as §8, §9, §10, §11, §1

Test [24] deals with barnyardgrass. Put plainly: Herbicidal test for paddy field. Conditions: paddy field pot, 500 g/ha dropwise at 1.5 leaf stage of barnyardgrass, 3 weeks, rank vs non-treated. Type of test: in vivo, Echinochloa crusgalli. The procedure:
as §8, §9, §10, §11, §1

In test [25] the test system is barnyardgrass. As to the kind of experiment: Soil treatment test for upland field. Type of test: in vivo, Echinochloa crusgalli. The conditions noted are these: 500 g/ha, glass house 25° C., 3 weeks.
Text: as §1, §6, §7, §5

Molecules are shown by their SMILES.

Consider `CCC(Oc1cccc(C(F)(F)F)c1)c1nc2cc(S(C)(=O)=O)c(C)cc2o1` (stereo not shown) [Compound 490], for which the “Effects Common lambsquarters” value in test [1] stood at 5. Also, the “Effects Wheat” value in test [2] came to 1. In [3], the “Effects Corn” value turned out to be 1. In addition, the “Effects Sugar beat” value in test [4] is listed as 4. Moreover, the “Effects Solgum” value in test [5] is on record as 1. In addition, the “Effects Livid amaranth” value in [6] is recorded as 4. In test [7], the “Effects Velvetleaf” value is 4.
As to `CCCC(Oc1cccc(C(F)(F)F)c1)c1nc2cc(S(C)(=O)=O)c(C)cc2o1` (stereo not shown) [Compound 489], in test [8], the “Effects Green foxtail” value amounted to 4. Further, the “Effects Common lambsquarters” value stood at 5 in test [1] and 4 in test [12]. Moreover, in [9], the “Effects Large crabgrass” value was found to be 2. Moreover, the figures for the “Effects Wheat” value in test [2] and in test [13] were 1 and 0, respectively. The “Effects Corn” value in [3] and in test [14] was 1 each time. For the same molecule, the “Effects Sugar beat” value in test [4] and in test [15] was 5 in each case. The “Effects Solgum” value in test [5] came out at 1; in test [16] it was 0. In addition, the “Effects Annual bluegrass” value in test [10] came to 5. Also, the “Effects Livid amaranth” value in [11] and in test [6] was 5 in each case. Also, the “Effects Velvetleaf” value in [7] and in [19] was 3 each time. Besides, the “Effects Cotton” value in [17] is on record as 0. Moreover, in test [18], the “Effects Soybean” value turned out to be 0.
As to `CCCCC(Oc1ccc(F)c(C(F)(F)F)c1)c1nc2cc(Cl)ccc2o1` (stereo not shown) [Compound 476], in [8], the “Effects Green foxtail” value stood at 4. Also, the “Effects Common lambsquarters” value in test [1] was 5; in test [12], 3. Also, the “Effects Large crabgrass” value in [9] was 3. For the same molecule, the “Effects Wheat” value came to 1 in [2] and 0 in test [13]. Moreover, the “Effects Corn” value in test [3] stood at 1; in [14], 0. Also, the “Effects Sugar beat” value is 5 in test [4] and 3 in test [15]. The “Effects Solgum” value in [5] and in test [16] was 0 each time. Further, the “Effects Annual bluegrass” value in [10] worked out at 4. The “Effects Livid amaranth” value in test [11] and in test [6] was 5 throughout. Besides, the “Effects Velvetleaf” value in test [7] and in test [19] was 2 each time. Also, in [17], the “Effects Cotton” value was 0. The “Effects Soybean” value in [18] amounted to 0.
As for `CCCC(Oc1ccc(F)c(C(F)(F)F)c1)c1nc2cc(S(C)(=O)=O)ccc2o1` (stereo not shown) [Compound 217], the “Effects Green foxtail” value in test [8] is 5. The “Effect Bulrush” value in test [20] was found to be 2. The “Effects Large crabgrass” value in test [9] is on record as 5. Moreover, the “Effect Monochoria” value in [21] was determined as 4. The “Effects Annual bluegrass” value in test [10] came to 4. Moreover, the “Effects Livid amaranth” value in test [11] is given as 5. For the same molecule, the “Effects Blackgrass” value in test [22] is reported as 2. In [12], the “Effects Common lambsquarters” value was determined as 5. Besides, in [13], the “Effects Wheat” value was 0. Further, in test [14], the “Effects Corn” value was determined as 0. The “Effects Sugar beat” value in test [15] is 5. For the same molecule, the “Effects Solgum” value in test [16] is 0. In [17], the “Effects Cotton” value is 1. The “Effects Soybean” value in test [18] worked out at 0. Moreover, in test [23], the “Effect Young rice plant” value was found to be 1. Further, the “Effects Velvetleaf” value in [19] is listed as 5.
With `CCC(Oc1cccc(C#N)c1)c1nc2cc(Cl)ccc2o1` (stereo not shown) [Compound 353], the “Effect Bulrush” value in [20] is reported as 4. Moreover, the “Effect Monochoria” value in [21] was found to be 5. In test [24], the “Effect Barnyardgrass” value was 3. Further, the “Effect Young rice plant” value in test [23] was 0.
Take `CCCC(Oc1cccc(C#N)c1)c1nc2cc(F)c(Cl)cc2o1` (stereo not shown) [Compound 501]: the “Effect Monochoria” value in [21] was determined as 3. The “Effect Barnyardgrass” value in test [24] came to 3. Besides, the “Effect Young rice plant” value in test [23] is reported as 1.
For `CCC(Oc1ccc(Cl)c(C(F)(F)F)c1)c1nc2cc([N+](=O)[O-])ccc2o1` (stereo not shown) [Compound 432], in [8], the “Effects Green foxtail” value is reported as 5. The “Effects Large crabgrass” value in [9] amounted to 5. Moreover, in test [25], the “Effects Barnyardgrass” value is on record as 4. Further, in [10], the “Effects Annual bluegrass” value amounted to 5. In addition, in test [11], the “Effects Livid amaranth” value is on record as 5. For the same molecule, the “Effects Blackgrass” value in test [22] turned out to be 3. Further, the “Effects Common lambsquarters” value in test [12] is reported as 3. For the same molecule, the “Effects Wheat” value in [13] is reported as 0. The “Effects Corn” value in test [14] is 0. For the same molecule, in [15], the “Effects Sugar beat” value is on record as 5. In test [16], the “Effects Solgum” value turned out to be 2. In addition, in test [17], the “Effects Cotton” value turned out to be 0. In [18], the “Effects Soybean” value is on record as 0. The “Effects Velvetleaf” value in [19] was determined as 2.

The record behind these values is patent US6706664B1, “Benzoxazole compounds, process for the preparation thereof and herbicides” (UBE Industries, Ltd., priority 1999, dated 2004).
